The text below walks through data of article PMC12051030, “Identification of inhibitors of the Salmonella FraB deglycase, a drug target” (FEBS Open Bio, 2025).

Data set [1] concerns the target T1, FraB (Salmonella enterica subsp. enterica serovar Typhimurium, UniProt Q8ZLD0). Briefly: FraB assay, Michaelis–Menten kinetics with substrate. Format: biochemical. As for the experimental part:
The substrate for FraB, 6‐P‐F‐Asp, was synthesized as previously described. FraB activity was monitored as described previously, with the following changes. The final reaction (30 μL) consisted of 25 mM HEPES pH 8 (at 20 °C), 5 mM MgCl2, 0.1 mM ethylene glycol tetraacetic acid (EGTA), 0.5 mM NAD^+, 1 mU G6PD from Leuconostoc mesenteroides (#LS003981; Worthington Biochemicals, Lakewood, NJ, USA), 100 nM His6‐FraB, and 0–3 mM 6‐P‐F‐Asp. The reaction mixture without substrate (29 μL) was added to one well of a 384‐well polystyrene white μClear® microplate (#781095; Greiner Bio‐One, Monroe, NC, USA) and incubated at 37 °C for 2 min, prior to the addition of 1 μL substrate to initiate the reaction. NADH generation was monitored using either absorbance (340 nm) or fluorescence (350 nm excitation, 450 nm emission) and with either an INFINITE M1000 PRO (Tecan, Mannedorf, Switzerland) or Synergy H1 (Biotek, Winooski, VT, USA) plate reader. Absorbance/fluorescence was plotted against time and slopes were obtained by linear regression analyses. These slopes were converted into initial velocities by dividing them by either the absorbance extinction coefficient (ε340 = 6,220 M ^−1·cm^−1) or the molar fluorescence determined based on standard curves obtained in different plate readers (23,646 RFUs·μM ^−1, Tecan; 285,108 RFUs·μM ^−1, Biotek; Fig. S2). […]

The target in data set [2] is T1, FraB. Particulars: previously reported; cited from earlier work.
Substrate in data set [3]: O=C(O)C[C@H](NCC1(O)O[C@H](COP(=O)(O)O)[C@@H](O)[C@@H]1O)C(=O)O
Description: FraB assay, Michaelis–Menten kinetics with substrate. The format is biochemical, Salmonella. Particulars: pH 8.0. The procedure:
The substrate for FraB, 6‐P‐F‐Asp, was synthesized as previously described. FraB activity was monitored as described previously, with the following changes. The final reaction (30 μL) consisted of 25 mM HEPES pH 8 (at 20 °C), 5 mM MgCl2, 0.1 mM ethylene glycol tetraacetic acid (EGTA), 0.5 mM NAD^+, 1 mU G6PD from Leuconostoc mesenteroides (#LS003981; Worthington Biochemicals, Lakewood, NJ, USA), 100 nM His6‐FraB, and 0–3 mM 6‐P‐F‐Asp. The reaction mixture without substrate (29 μL) was added to one well of a 384‐well polystyrene white μClear® microplate (#781095; Greiner Bio‐One, Monroe, NC, USA) and incubated at 37 °C for 2 min, prior to the addition of 1 μL substrate to initiate the reaction. NADH generation was monitored using either absorbance (340 nm) or fluorescence (350 nm excitation, 450 nm emission) and with either an INFINITE M1000 PRO (Tecan, Mannedorf, Switzerland) or Synergy H1 (Biotek, Winooski, VT, USA) plate reader. Absorbance/fluorescence was plotted against time and slopes were obtained by linear regression analyses. These slopes were converted into initial velocities by dividing them by either the absorbance extinction coefficient (ε340 = 6,220 M ^−1·cm^−1) or the molar fluorescence determined based on standard curves obtained in different plate readers (23,646 RFUs·μM ^−1, Tecan; 285,108 RFUs·μM ^−1, Biotek; Fig. S2). These initial velocities (v o) in turn were plotted against [6‐P‐F‐Asp] to obtain Michaelis–Menten curves that were fit to the formula v o = (V max × [S])/(K m + [S]) by Kaleidagraph (Version 4.5.3; Synergy Software, Reading, PA, USA). The activity of recombinant FraB (Fig. S3) was similar to that as reported previously.

Setting [4] is: other: newer batches of substrate.
[5] abbreviates: other: representative Michaelis-Menten plot, Fig. S3, curve-fit errors.

What is called kcat is the maximal rate divided by the concentration of active sites. In general, kcat/Km refers to the second-order rate constant that governs catalysis at low substrate concentration. The term Km denotes the concentration of substrate that gives half-maximal velocity.

Read-outs that look alike come from different tables or passages of the source.

Take `O=C(O)C[C@H](NCC1(O)O[C@H](COP(=O)(O)O)[C@@H](O)[C@@H]1O)C(=O)O` (stereo partly shown) [6‐P‐F‐Asp, 6‐phosphofructose‐aspartate]: the K m on FraB [1] (approximate value used for [S]/K m) was ~ 40 μM. In addition, at FraB [1] (newer batches of substrate), the K m worked out at 0.042 ± 0.007 mM. Further, at FraB [2], the K m is reported as 0.116 ± 0.012 mM, the k cat is 63 ± 10 min⁻¹ and the “k cat/K m” value is on record as 543 min^−1 mM ^−1.

B1: FraB (Salmonella enterica subsp. enterica serovar Typhimurium str. LT2) (protein)
chain: MMGMKETVSNIVTSQAEKGGVKHVYYVACGGSYAAFYPAKAFLEKEAKALTVGLYNSGEFINNPPVALGENAVVVVASHKGNTPETIKAAEIARQHGAPVIGLTWIMDSPLVAHCDYVETYTFGDGKDIAGEKTMKGLLSAVELLQQTEGYAHYDDFQDGVSKINRIVWRACEQVAERAQAFAQEYKDDKVIYTVASGAGYGAAYLQSICIFMEMQWIHSACIHSGEFFHGPFEITDANTPFFFQFSEGNTRAVDERALNFLKKYGRRIEVVDAKELGLSTIKTTVIDYFNHSLFNNVYPVYNRALAEARQHPLTTRRYMWKVEY
In the case of B1, in data set [3] (setting [4]), the kcat was found to be 57 ± 0.7 min⁻¹ and the kcat/Km is recorded as 1,357 min^−1 mM ^−1. Besides, in data set [3] (setting [5]), the Km was determined as 0.067 ± 0.008 mM, the kcat was found to be 69.7 ± 0.19 min⁻¹ and the catalytic efficiency (kcat/Km) amounted to 1040 min⁻¹ mM⁻¹.
